Legend:
[1] = test system: normal NK cells expanded with K562-aAPC; assay: percent inhibition of viability; higher = more inhibition; conditions: 72 h, IL-2 2.5 ng/mL
Method: (§1)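 Drug sensitivity and resistance testing on K562-aAPC-expanded normal NK cells: 5 concentrations (10-fold steps over a 10,000-fold range), 72 h at 37 °C, viability by CellTiter-Glo normalised to DMSO and benzethonium chloride controls; DSS from the fitted curve.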

[2] = test system: DERL-7 (IL-2 2.5 ng/mL); assay: as above; conditions: 72 h
[3] = test system: IMC-1 (IL-2 20 ng/mL); assay: as above; conditions: 72 h
[4] = test system: KAI3 (IL-2 2.5 ng/mL); assay: as above; conditions: 72 h
[5] = test system: KHYG-1 (IL-2 2.5 ng/mL); assay: as above; conditions: 72 h
[6] = test system: NK-92 (IL-2 2.5 ng/mL); assay: as above; conditions: 72 h
[7] = test system: NK-YS (IL-2 2.5 ng/mL); assay: as above; conditions: 72 h
[8] = test system: NKL (IL-2 2.5 ng/mL); assay: as above; conditions: 72 h
[9] = test system: SNK-6 (IL-2 2.5 ng/mL); assay: as above; conditions: 72 h
[10] = test system: YT (IL-2 2.5 ng/mL); assay: as above; conditions: 72 h
[11] = test system: normal primary NK cells, pool 1 (3 donors) (IL-2 2.5 ng/mL); assay: as above; conditions: 72 h
[12] = test system: normal primary NK cells, pool 1 (3 donors), resting (IL-2 0 ng/mL); assay: as above; conditions: 72 h
[13] = test system: normal primary NK cells, pool 2 (3 donors) (IL-2 2.5 ng/mL); assay: as above; conditions: 72 h
[14] = test system: normal primary NK cells, pool 3 (3 donors) (IL-2 2.5 ng/mL); assay: as above; conditions: 72 h
[15] = test system: normal NK cells expanded with K562-aAPC; assay: drug sensitivity score (DSS) (DSS units); higher = more sensitive; extreme values may be limits of the assay; conditions: 72 h; IL-2 2.5 ng/mL
Method: as §1

[16] = test system: DERL-7 (IL-2 2.5 ng/mL); assay: as above; conditions: 72 h
[17] = test system: IMC-1 (IL-2 20 ng/mL); assay: as above; conditions: 72 h
[18] = test system: KAI3 (IL-2 2.5 ng/mL); assay: as above; conditions: 72 h
[19] = test system: KHYG-1 (IL-2 2.5 ng/mL); assay: as above; conditions: 72 h
[20] = test system: NK-92 (IL-2 2.5 ng/mL); assay: as above; conditions: 72 h
[21] = test system: NK-YS (IL-2 2.5 ng/mL); assay: as above; conditions: 72 h
[22] = test system: NKL (IL-2 2.5 ng/mL); assay: as above; conditions: 72 h
[23] = test system: SNK-6 (IL-2 2.5 ng/mL); assay: as above; conditions: 72 h
[24] = test system: YT (IL-2 2.5 ng/mL); assay: as above; conditions: 72 h
[25] = test system: normal primary NK cells, pool 1 (3 donors) (IL-2 2.5 ng/mL); assay: as above; conditions: 72 h
[26] = test system: normal primary NK cells, pool 1 (3 donors), resting (IL-2 0 ng/mL); assay: as above; conditions: 72 h
[27] = test system: normal primary NK cells, pool 2 (3 donors) (IL-2 2.5 ng/mL); assay: as above; conditions: 72 h
[28] = test system: normal primary NK cells, pool 3 (3 donors) (IL-2 2.5 ng/mL); assay: as above; conditions: 72 h

CC(C)n1cnc2c(NCCc3ccc(O)cc3)nc(-c3csc4ccccc34)nc21 [StemRegenin 1] (max concentration tested 10000 nM)
percent inhibition of viability [%]
Conditions	1 nM	10 nM	100 nM	1000 nM	10000 nM
[1]	-5.56	-5.75	-5.39	-7.57	0.59
[2]	2.23	15.4	50.9	71.1	96.4
[3]	-6.67	-2.1	-7.77	-8.29	0.67
[4]	-8.14	3.68	6.57	-0.19	76.8
[5]	-5.41	-0.83	0.98	8.59	98.9
[6]	-11	-16.6	1.48	39.2	97.7
[7]	-3.67	-6.84	-5.59	1.14	24.9
[8]	-9.52	0.88	5.6	18.4	80.4
[9]	-6.98	28.7	-5.97	-12.5	71.9
[10]	-5.32	-2.81	0.29	5.57	71.9
[11]	-8.25	-4.37	-0.27	7.52	45
[12]	-11.7	-11.1	15.2	12.3	74.7
[13]	-1.53	-2.41	-0.22	-2.53	54.6
[14]	-3.75	-2.11	-2.9	-0.23	36

Conditions	drug sensitivity score
[15]	0
[16]	21.1
[17]	0
[18]	4.25
[19]	6.85
[20]	10.6
[21]	1.09
[22]	7.36
[23]	3.24
[24]	4.83
[25]	3.58
[26]	6.2
[27]	2.7
[28]	1.7

CC/C(=C(\c1ccccc1)c1ccc(OCCN(C)C)cc1)c1ccccc1 [Tamoxifen] (max concentration tested 10000 nM)
percent inhibition of viability [%]
Conditions	1 nM	10 nM	100 nM	1000 nM	10000 nM
[1]	-7.94	-6.09	-3.11	5.82	37.2
[2]	1.51	5.51	6.94	12.4	58.1
[3]	2.26	1.26	1.8	5.99	14.7
[4]	-0.42	-4.09	3.87	8.65	100
[5]	-5.57	-6.4	1.61	13.7	44.6
[6]	-11.7	-1.59	-5.3	2.31	75.2
[7]	-7.45	-5.92	-3.79	2.63	33.2
[8]	-6.42	-9.93	0.08	21.2	73.4
[9]	-6.58	-17.5	-11.6	-6.09	51.8
[10]	-0.53	-2.4	0.91	3.43	58.4
[11]	1.45	8.11	7.67	12.3	89.6
[12]	2.3	22	15.1	20.6	90.1
[13]	-3.62	2.15	-3.66	4.91	68.8
[14]	-1.03	0.09	5.67	-1.54	30.3

Conditions	drug sensitivity score
[15]	2.77
[16]	5.15
[17]	0.37
[18]	6.93
[19]	4.33
[20]	4.46
[21]	1.92
[22]	7.22
[23]	2.32
[24]	3.65
[25]	7.04
[26]	8.03
[27]	4.53
[28]	1.21
